Experimental data reported in ChEMBL document CHEMBL1201862, “PubChem BioAssay data set” (2004).
Several values for one entry are separate records, joined by “and”; a condition that tells them apart may be missing. Equal entries are not always repeated.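 Protocol summary: plate cells (96-well), add compound at 5 concentrations, incubate 48 h, interpolate endpoints linearly. Abbreviation: GI50, concentration required for 50% inhibition of growth.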 Activity calls are given as the source filed them. Rule as the data show it: active = GI50 up to about 1.1 µM and inactive = higher.

Key:
Assay in all cases: DTP human tumour cell line panel, 48 h
[1] = test system: DLD-1
[2] = test system: LXFL 529
[3] = test system: HOP-18
[4] = test system: DMS-273
[5] = test system: RXF 631
[6] = test system: SNB-78
[7] = test system: KM-20L2
[8] = test system: XF498
[9] = test system: DMS-114

CC(C)O/C=C1\C(=O)C2(SCCS2)[C@H]2CCCC[C@@H]12
GI50 [1]: 45.9 µM (inactive)
GI50 [2]: 33.7 µM (inactive)
GI50 [3]: 44.6 µM (inactive)
GI50 [4]: 37.2 µM (inactive)
GI50 [5]: 52.8 µM (inactive)
GI50 [6]: 49 µM (inactive)
GI50 [7]: 39.5 µM (inactive)

CN(C(=O)c1ccco1)C(=S)N1CCN(c2ccccc2)CC1
GI50 [1]: > 100 µM (inactive)
GI50 [8]: > 100 µM (inactive)
GI50 [2]: > 100 µM (inactive)
GI50 [9]: > 100 µM (inactive)
GI50 [3]: > 100 µM (inactive)
GI50 [4]: > 100 µM (inactive)
GI50 [7]: > 100 µM (inactive)

CC1=NN(C(=O)Nc2ccccc2)C(=O)C2CCC(=O)N12 (centres undefined)
GI50 [1]: > 100 µM (inactive)
GI50 [8]: > 100 µM (inactive)
GI50 [2]: > 100 µM (inactive)
GI50 [9]: > 100 µM (inactive)
GI50 [4]: > 100 µM (inactive)
GI50 [5]: > 100 µM (inactive)
GI50 [6]: > 100 µM (inactive)
GI50 [7]: > 100 µM (inactive)

CC1=CC(=C(c2ccc(N)c(C)c2)c2ccc(N)c(C)c2)C=CC1=N
GI50 [1]: 3.78 µM (inactive)
GI50 [8]: 2.91 µM (inactive)
GI50 [2]: 1.27 µM (inactive)
GI50 [9]: 1.2 µM (inactive)
GI50 [4]: 2.45 µM (inactive)
GI50 [6]: 4.84 µM (inactive)
GI50 [7]: 3.33 µM (inactive)

CCCCCCCCCCCCCCCCCCOCC(COCCOCC[N+]1(CCCCCC(=O)[O-])CCCC1)Oc1ncccn1 (centres undefined)
GI50 [1]: 2.18 µM (inactive)
GI50 [8]: 2.1 µM (inactive)
GI50 [9]: 1.21 µM (inactive)
GI50 [3]: 4.85 µM (inactive)
GI50 [4]: 0.37 µM (active)
GI50 [6]: 2.56 µM (inactive)
GI50 [7]: 1.4 µM (inactive)

Cc1ccc(S(=O)(=O)SC/C=C\CSS(=O)(=O)c2ccc(C)cc2)cc1
GI50 [1]: 22.1 µM (inactive) and 29.1 µM (inactive)
GI50 [8]: 38.5 µM (inactive) and 23.4 µM (inactive)
GI50 [6]: 25.9 µM (inactive) and 27.2 µM (inactive)
GI50 [7]: 23.2 µM (inactive) and 23.3 µM (inactive)

OC12CCC3(OC4CCCCO4)c4ccccc4C3C1c1ccccc12 (centres undefined)
GI50 [8]: 31.8 µM (inactive)
GI50 [2]: 41.2 µM (inactive)
GI50 [9]: 87.5 µM (inactive)
GI50 [3]: > 100 µM (inactive)
GI50 [4]: 61.7 µM (inactive)
GI50 [6]: > 100 µM (inactive)
GI50 [7]: 59.3 µM (inactive)

c1ccc(SC(Sc2ccccc2)=C2CCC2)cc1
GI50 [1]: > 100 µM (inactive)
GI50 [8]: 49.8 µM (inactive)
GI50 [9]: > 100 µM (inactive)
GI50 [4]: > 100 µM (inactive)
GI50 [5]: > 100 µM (inactive)
GI50 [6]: > 100 µM (inactive)
GI50 [7]: > 100 µM (inactive)

CSC1C=C(C(C)C)CCC1(C)SC (centres undefined)
GI50 [1]: 18 µM (inactive)
GI50 [8]: 19.6 µM (inactive)
GI50 [2]: 18.4 µM (inactive)
GI50 [9]: 15.7 µM (inactive)
GI50 [4]: 19 µM (inactive)
GI50 [6]: 16.5 µM (inactive)
GI50 [7]: 28.2 µM (inactive)

Cc1nc2sccn2c1C(=O)NN
GI50 [1]: > 100 µM (inactive)
GI50 [8]: > 100 µM (inactive)
GI50 [2]: > 100 µM (inactive)
GI50 [9]: > 100 µM (inactive)
GI50 [3]: 21.6 µM (inactive)
GI50 [4]: > 100 µM (inactive)
GI50 [5]: > 100 µM (inactive)
GI50 [7]: > 100 µM (inactive)

COC(=O)C(=O)C(C(=O)C(=O)Nc1ccccc1[N+](=O)[O-])c1nc2ccc([N+](=O)[O-])cc2nc1O (centres undefined)
GI50 [2]: > 100 µM (inactive)
GI50 [9]: > 100 µM (inactive)
GI50 [3]: > 100 µM (inactive)
GI50 [4]: > 100 µM (inactive)
GI50 [5]: > 100 µM (inactive)
GI50 [6]: > 100 µM (inactive)
GI50 [7]: > 100 µM (inactive)

COC12C(COC(=O)NCCO)C3=C(C(=O)C(C)=C(N)C3=O)N1CC1NC12 (centres undefined)
GI50 [1]: 41.4 µM (inactive)
GI50 [2]: 56.2 µM (inactive)
GI50 [9]: 22.9 µM (inactive)
GI50 [3]: 36.8 µM (inactive)
GI50 [4]: 2.52 µM (inactive)
GI50 [6]: 80.5 µM (inactive)
GI50 [7]: 37.9 µM (inactive)

C/C(=N/O)c1ccc2c(c1)/C(=N/O)c1cc(/C(C)=N/O)ccc1-2
GI50 [1]: 16.1 µM (inactive)
GI50 [8]: 21.8 µM (inactive)
GI50 [2]: 14.3 µM (inactive)
GI50 [9]: 22.4 µM (inactive)
GI50 [3]: 14.1 µM (inactive)
GI50 [4]: 23.8 µM (inactive)
GI50 [6]: 17.5 µM (inactive)
GI50 [7]: 17.4 µM (inactive)

COc1ccc(NC(=O)CC/C(CC(=O)c2ccccc2Cl)=N\Nc2nnc(C)n2N)cc1
GI50 [1]: > 100 µM (inactive)
GI50 [2]: > 100 µM (inactive)
GI50 [9]: > 100 µM (inactive)
GI50 [3]: > 100 µM (inactive)
GI50 [4]: > 100 µM (inactive)
GI50 [5]: > 100 µM (inactive)
GI50 [6]: > 100 µM (inactive)
GI50 [7]: > 100 µM (inactive)

COc1ccc(C(=O)C(c2ccc(OC)cc2)C2(O)C(=O)Nc3c(C)cc(Cl)cc32)cc1 (centres undefined)
GI50 [1]: 76.4 µM (inactive)
GI50 [2]: 37.7 µM (inactive)
GI50 [4]: 58.9 µM (inactive)
GI50 [5]: 59 µM (inactive)
GI50 [6]: > 100 µM (inactive)
GI50 [7]: > 100 µM (inactive)

O=C(CC1(O)C(=O)Nc2c(Cl)ccc(Cl)c21)c1ccc(F)cc1 (centres undefined)
GI50 [1]: 52.5 µM (inactive)
GI50 [8]: 32.7 µM (inactive)
GI50 [2]: 19.4 µM (inactive)
GI50 [9]: 22.7 µM (inactive)
GI50 [3]: 29.6 µM (inactive)
GI50 [4]: 33.7 µM (inactive)
GI50 [5]: 37 µM (inactive)
GI50 [6]: 35.6 µM (inactive)
GI50 [7]: 39.8 µM (inactive)

C=CCC1C(=O)CC2(C)CC(=O)C(CC=C)C12C (centres undefined)
GI50 [1]: > 100 µM (inactive)
GI50 [8]: > 100 µM (inactive)
GI50 [2]: > 100 µM (inactive)
GI50 [9]: > 100 µM (inactive)
GI50 [3]: > 100 µM (inactive)
GI50 [4]: > 100 µM (inactive)
GI50 [6]: > 100 µM (inactive)
GI50 [7]: > 100 µM (inactive)

O=C1C(=Cc2ccc(F)cc2)C(=O)c2ccccc21
GI50 [1]: > 100 µM (inactive)
GI50 [8]: > 100 µM (inactive)
GI50 [2]: > 100 µM (inactive)
GI50 [9]: > 100 µM (inactive)
GI50 [4]: > 100 µM (inactive)
GI50 [5]: > 100 µM (inactive)
GI50 [7]: > 100 µM (inactive)

COc1ccc(C(=O)C(CC2C(=O)NC(=O)NC2=O)c2ccc(OC)cc2)cc1 (centres undefined)
GI50 [1]: > 100 µM (inactive)
GI50 [8]: > 100 µM (inactive)
GI50 [2]: > 100 µM (inactive)
GI50 [9]: > 100 µM (inactive)
GI50 [3]: > 100 µM (inactive)
GI50 [4]: > 100 µM (inactive)
GI50 [6]: > 100 µM (inactive)
GI50 [7]: > 100 µM (inactive)

CN(/N=C\c1ccnc2ccccc12)c1ccccc1
GI50 [1]: 21.5 µM (inactive)
GI50 [8]: 29.7 µM (inactive)
GI50 [2]: 26.1 µM (inactive)
GI50 [9]: 22.7 µM (inactive)
GI50 [3]: 79.1 µM (inactive)
GI50 [4]: 20 µM (inactive)
GI50 [6]: 34.4 µM (inactive)

O=C(O)CSc1nnc(-c2ccccc2O)[nH]1
GI50 [1]: > 100 µM (inactive)
GI50 [8]: > 100 µM (inactive)
GI50 [2]: > 100 µM (inactive)
GI50 [9]: > 100 µM (inactive)
GI50 [4]: > 100 µM (inactive)
GI50 [5]: > 100 µM (inactive)
GI50 [6]: > 100 µM (inactive)
GI50 [7]: > 100 µM (inactive)

NC(=O)c1nc(-c2ccc(Cl)c(Cl)c2)nc2ccccc12
GI50 [1]: > 22.8 µM (inactive)
GI50 [8]: 57.8 µM (inactive)
GI50 [2]: > 26.4 µM (inactive)
GI50 [9]: > 20.4 µM (inactive)
GI50 [3]: 34.8 µM (inactive)
GI50 [6]: > 23.7 µM (inactive)
GI50 [7]: > 100 µM (inactive)

CC1=CC(=O)c2ccc3c4ccccc4n(C)c3c2C1=O
GI50 [1]: 62.8 µM (inactive)
GI50 [8]: 29.2 µM (inactive)
GI50 [2]: 25.8 µM (inactive)
GI50 [9]: 27.7 µM (inactive)
GI50 [3]: 4.4 µM (inactive)
GI50 [4]: 43.4 µM (inactive)
GI50 [6]: 90.8 µM (inactive)

C=CCc1ccc(O)c(-c2cc(C3Oc4c(-c5cc(CC=C)ccc5O)cc(O)cc4[C@@H]3CO)ccc2O)c1 (some centres undefined)
GI50 [1]: 18 µM (inactive)
GI50 [2]: 19.8 µM (inactive)
GI50 [9]: 14.9 µM (inactive)
GI50 [3]: 32.4 µM (inactive)
GI50 [4]: 20.4 µM (inactive)
GI50 [6]: 39.9 µM (inactive)
GI50 [7]: 26.7 µM (inactive)

CCCCCCCCCCCCCCCC(=O)NCC(COP(=O)([O-])OCC[N+](C)(C)C)OCC (centres undefined)
GI50 [1]: 5.19 µM (inactive)
GI50 [8]: 12.1 µM (inactive)
GI50 [2]: 13.1 µM (inactive)
GI50 [9]: 16 µM (inactive)
GI50 [3]: 0.92 µM (active)
GI50 [4]: 2.36 µM (inactive)
GI50 [6]: 14.1 µM (inactive)
GI50 [7]: 4.01 µM (inactive)

CN(C)/N=N/c1cccc(C(N)=O)c1
GI50 [1]: > 100 µM (inactive)
GI50 [8]: > 100 µM (inactive)
GI50 [2]: > 100 µM (inactive)
GI50 [9]: > 100 µM (inactive)
GI50 [3]: > 100 µM (inactive)
GI50 [4]: > 100 µM (inactive)
GI50 [6]: > 100 µM (inactive)
GI50 [7]: > 100 µM (inactive)
